Results as given in ChEMBL document CHEMBL1201862, “PubChem BioAssay data set” (2004).
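Interpolation was linear, between the two tested concentrations surrounding the appropriate level; five concentrations were tested over 48 hours in 96-well plates. Abbreviation: GI50, concentration required for 50% inhibition of growth.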 Activity calls are given as the source filed them. Rule as the data show it: active = GI50 up to about 1.1 µM and inactive = higher.

Experiments:
Assay in all cases: growth of human tumour cells (NCI), 48 h
786-0 = test system: 786-0
A498 = test system: A498
A549 = test system: A549
ACHN = test system: ACHN
CAKI-1 = test system: CAKI-1
CCRF-CEM = test system: CCRF-CEM
COLO 205 = test system: COLO 205
DLD-1 = test system: DLD-1
DMS-114 = test system: DMS-114
DMS-273 = test system: DMS-273
EKVX = test system: EKVX
HCC 2998 = test system: HCC 2998
HCT-116 = test system: HCT-116
HCT-15 = test system: HCT-15
HL-60 = test system: HL-60
HOP-18 = test system: HOP-18
HOP-62 = test system: HOP-62
HOP-92 = test system: HOP-92
HT-29 = test system: HT-29
IGROV-1 = test system: IGROV-1
K562 = test system: K562
KM-20L2 = test system: KM-20L2
KM12 = test system: KM12
LOX IMVI = test system: LOX IMVI
LXFL 529 = test system: LXFL 529
M14 = test system: M14
M19-MEL = test system: M19-MEL
MOLT-4 = test system: MOLT-4
Malme-3M = test system: Malme-3M
NCI-H226 = test system: NCI-H226
NCI-H23 = test system: NCI-H23
NCI-H460 = test system: NCI-H460
NCI-H522 = test system: NCI-H522
OVCAR-3 = test system: OVCAR-3
OVCAR-4 = test system: OVCAR-4
OVCAR-5 = test system: OVCAR-5
OVCAR-8 = test system: OVCAR-8
RPMI-8226 = test system: RPMI-8226
RXF 393 = test system: RXF 393
RXF 631 = test system: RXF 631
SF-268 = test system: SF-268
SK-OV-3 = test system: SK-OV-3
SN12C = test system: SN12C
SNB-19 = test system: SNB-19
SNB-75 = test system: SNB-75
SNB-78 = test system: SNB-78
SR = test system: SR
SW-620 = test system: SW-620
TK-10 = test system: TK-10
U-251 = test system: U-251
UACC-257 = test system: UACC-257
UACC-62 = test system: UACC-62
UO-31 = test system: UO-31
XF498 = test system: XF498
SF-295 = test system: SF-295
SF-539 = test system: SF-539
SK-MEL-28 = test system: SK-MEL-28
SK-MEL-2 = test system: SK-MEL-2
SK-MEL-5 = test system: SK-MEL-5

For `O=C(Nc1cccc(C(F)(F)F)c1)C(=O)C(C(=O)c1ccc(Cl)c(Cl)c1)C1OC(=O)c2ccccc21` (stereo not drawn), the GI50 (786-0) was 37.7 µM (inactive), the GI50 (A498) was 21.4 µM (inactive) and the GI50 (A549) was 44.2 µM (inactive). The GI50 (ACHN) was 53.2 µM (inactive), the GI50 (CAKI-1) was 88.1 µM (inactive) and the GI50 (CCRF-CEM) was 28.4 µM (inactive). For the same compound, the GI50 (COLO 205) was 41.2 µM (inactive), the GI50 (DLD-1) was 41.9 µM (inactive) and the GI50 (DMS-114) was 21.6 µM (inactive). The GI50 (DMS-273) was 33.9 µM (inactive), the GI50 (EKVX) was 79.1 µM (inactive) and the GI50 (HCC 2998) was 28.5 µM (inactive). For the same compound, the GI50 (HCT-116) was 17.5 µM (inactive), the GI50 (HCT-15) was 35 µM and the GI50 (HL-60) was 29.4 µM (inactive). For the same compound, the GI50 (HOP-18) was 17.5 µM (inactive), the GI50 (HOP-62) was 28.3 µM (inactive) and the GI50 (HOP-92) was 26.8 µM (inactive). The GI50 (HT-29) was 29.2 µM (inactive), the GI50 (IGROV-1) was 39.6 µM (inactive) and the GI50 (K562) was 44 µM (inactive). The GI50 (KM-20L2) was 39.4 µM (inactive), the GI50 (KM12) was 47.2 µM (inactive) and the GI50 (LOX IMVI) was 27.3 µM (inactive). The GI50 (LXFL 529) was 28.7 µM (inactive), the GI50 (M14) was 81.1 µM (inactive) and the GI50 (M19-MEL) was 18.8 µM (inactive). For the same compound, the GI50 (MOLT-4) was 48.9 µM (inactive), the GI50 (Malme-3M) was 15.6 µM (inactive) and the GI50 (NCI-H226) was 19.9 µM (inactive). For the same compound, the GI50 (NCI-H23) was 27.4 µM (inactive), the GI50 (NCI-H460) was 31.8 µM (inactive) and the GI50 (NCI-H522) was 28.8 µM (inactive). For the same compound, the GI50 (OVCAR-3) was 32.1 µM (inactive), the GI50 (OVCAR-4) was 40 µM (inactive) and the GI50 (OVCAR-5) was 62.4 µM (inactive). The GI50 (OVCAR-8) was 26.5 µM (inactive), the GI50 (RPMI-8226) was 56 µM (inactive) and the GI50 (RXF 393) was 14.7 µM (inactive). For the same compound, the GI50 (RXF 631) was 39.3 µM (inactive), the GI50 (SF-268) was 37.9 µM (inactive) and the GI50 (SK-OV-3) was > 100 µM (inactive). For the same compound, the GI50 (SN12C) was 36.6 µM (inactive), the GI50 (SNB-19) was 37.8 µM (inactive) and the GI50 (SNB-75) was 22.7 µM (inactive). For the same compound, the GI50 (SNB-78) was 32.4 µM (inactive), the GI50 (SR) was 15.4 µM (inactive) and the GI50 (SW-620) was 38.1 µM (inactive). The GI50 (TK-10) was > 100 µM (inactive), the GI50 (U-251) was 23.1 µM (inactive) and the GI50 (UACC-257) was 51.8 µM (inactive). For the same compound, the GI50 (UACC-62) was 28.6 µM (inactive), the GI50 (UO-31) was 55.1 µM (inactive) and the GI50 (XF498) was > 100 µM (inactive).
For `Cc1cc(Br)cc(C)c1NC(=O)C(=O)C(C(=O)c1ccc2ccccc2c1)C1OC(=O)c2ccccc21` (stereo not drawn), the GI50 (786-0) was 6.03 µM (inactive), the GI50 (A498) was 12 µM (inactive) and the GI50 (A549) was 22.4 µM (inactive). The GI50 (ACHN) was 15.2 µM (inactive), the GI50 (CAKI-1) was 15.7 µM (inactive) and the GI50 (CCRF-CEM) was 3.94 µM (inactive). The GI50 (COLO 205) was 16.3 µM (inactive), the GI50 (DLD-1) was 13 µM (inactive) and the GI50 (DMS-114) was 7.78 µM (inactive). The GI50 (DMS-273) was 11 µM (inactive), the GI50 (EKVX) was 19.5 µM (inactive) and the GI50 (HCC 2998) was 11 µM (inactive). For the same compound, the GI50 (HCT-116) was 8.91 µM (inactive), the GI50 (HCT-15) was 17.3 µM and the GI50 (HL-60) was 4.45 µM (inactive). For the same compound, the GI50 (HOP-18) was 21.7 µM (inactive), the GI50 (HOP-62) was 12.2 µM (inactive) and the GI50 (HOP-92) was 1.58 µM (inactive). For the same compound, the GI50 (HT-29) was 18.2 µM (inactive), the GI50 (IGROV-1) was 18.2 µM (inactive) and the GI50 (K562) was 5.93 µM (inactive). For the same compound, the GI50 (KM-20L2) was 19.2 µM (inactive), the GI50 (KM12) was 15.5 µM (inactive) and the GI50 (LOX IMVI) was 12.1 µM (inactive). For the same compound, the GI50 (LXFL 529) was 7.93 µM (inactive), the GI50 (M14) was 15.6 µM (inactive) and the GI50 (M19-MEL) was 12.4 µM (inactive). For the same compound, the GI50 (MOLT-4) was 2.31 µM (inactive), the GI50 (Malme-3M) was 14.7 µM (inactive) and the GI50 (NCI-H226) was 4.85 µM (inactive). The GI50 (NCI-H23) was 7.53 µM (inactive), the GI50 (NCI-H460) was 4.66 µM (inactive) and the GI50 (NCI-H522) was 8.65 µM (inactive). For the same compound, the GI50 (OVCAR-3) was 19.5 µM (inactive), the GI50 (OVCAR-4) was 5.14 µM (inactive) and the GI50 (OVCAR-5) was 7.14 µM (inactive). The GI50 (OVCAR-8) was 7.18 µM (inactive), the GI50 (RPMI-8226) was 5.94 µM (inactive) and the GI50 (RXF 393) was 5.93 µM (inactive). The GI50 (RXF 631) was 16.4 µM (inactive), the GI50 (SF-268) was 7.98 µM (inactive) and the GI50 (SF-295) was 4.59 µM (inactive). For the same compound, the GI50 (SF-539) was 2.69 µM (inactive), the GI50 (SK-MEL-28) was 8.97 µM (inactive) and the GI50 (SK-MEL-2) was 16 µM (inactive). The GI50 (SK-MEL-5) was 11.2 µM (inactive), the GI50 (SK-OV-3) was 78.5 µM (inactive) and the GI50 (SN12C) was 19.7 µM (inactive). The GI50 (SNB-19) was 8 µM (inactive), the GI50 (SNB-75) was 14.3 µM (inactive) and the GI50 (SNB-78) was > 10 µM (inactive). The GI50 (SR) was 2.47 µM (inactive), the GI50 (SW-620) was 8.02 µM (inactive) and the GI50 (TK-10) was 21.1 µM (inactive). For the same compound, the GI50 (U-251) was 5.78 µM (inactive), the GI50 (UACC-257) was 10.7 µM (inactive) and the GI50 (UACC-62) was 12.9 µM (inactive). For the same compound, the GI50 (UO-31) was 15.8 µM (inactive) and the GI50 (XF498) was 1.14 µM (inactive).
